Test results: paper PMC9120017, “Inhibition mechanism of the chloride channel TMEM16A by the pore blocker 1PBC” (Nature Communications, 2022)
Like-named read-outs stand apart in the source and are kept apart here.

Target: T1, mouse TMEM16A mutant I512A (Mus musculus, UniProt Q8BHY3, I512A)
T1 construct: expressed in transfected cells; host or cells: HEK293T
T1 sequence (Q8BHY3 1-960 I512A): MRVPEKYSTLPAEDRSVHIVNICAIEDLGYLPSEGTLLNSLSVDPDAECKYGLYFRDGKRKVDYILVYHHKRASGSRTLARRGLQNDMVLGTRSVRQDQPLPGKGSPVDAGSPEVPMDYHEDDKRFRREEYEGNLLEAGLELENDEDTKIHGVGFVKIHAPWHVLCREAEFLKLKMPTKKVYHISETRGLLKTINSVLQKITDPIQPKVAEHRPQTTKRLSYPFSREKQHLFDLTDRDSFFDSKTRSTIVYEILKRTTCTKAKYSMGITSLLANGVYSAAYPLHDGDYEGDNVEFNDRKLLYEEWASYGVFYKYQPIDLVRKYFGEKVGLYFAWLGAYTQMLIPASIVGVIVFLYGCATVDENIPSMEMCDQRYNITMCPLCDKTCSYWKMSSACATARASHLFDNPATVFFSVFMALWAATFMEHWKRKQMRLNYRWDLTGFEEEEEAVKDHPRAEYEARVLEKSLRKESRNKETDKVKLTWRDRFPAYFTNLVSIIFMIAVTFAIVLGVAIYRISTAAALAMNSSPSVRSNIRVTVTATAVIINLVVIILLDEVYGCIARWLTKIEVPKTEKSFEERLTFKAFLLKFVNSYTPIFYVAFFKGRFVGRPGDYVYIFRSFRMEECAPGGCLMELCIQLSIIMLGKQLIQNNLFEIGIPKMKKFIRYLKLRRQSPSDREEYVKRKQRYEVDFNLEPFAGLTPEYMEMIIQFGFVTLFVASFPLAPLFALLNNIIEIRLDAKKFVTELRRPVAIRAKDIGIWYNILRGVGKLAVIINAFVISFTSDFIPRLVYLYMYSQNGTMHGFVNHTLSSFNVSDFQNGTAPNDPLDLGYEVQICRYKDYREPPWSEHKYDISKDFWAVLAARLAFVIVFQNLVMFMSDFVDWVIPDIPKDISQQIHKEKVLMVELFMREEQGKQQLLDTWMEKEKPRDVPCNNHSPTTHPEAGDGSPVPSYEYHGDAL
Assay: Inside-out patch recording of 1PBC block, mutant I512A
Type: cell-based
Conditions: for remaining activity at 100 µM: 100 µM 1PBC
Procedure: HEK293T cells (ATCC CRL-1573) were maintained in Dulbecco’s modified Eagle’s medium (DMEM; Sigma-Aldrich) supplemented with 10 U ml^−1 penicillin, 0.1 mg ml^−1 streptomycin (Sigma-Aldrich), 2 mM L-glutamine (Sigma-Aldrich), and 10% FBS (Sigma-Aldrich) in a humidified atmosphere containing 5% CO2 at 37 °C. HEK293S GnTI^− cells (ATCC CRL-3022) were maintained in HyClone HyCell TransFx-H medium (GE Healthcare) supplemented with 10 U ml^−1 penicillin, 0.1 mg ml^−1 streptomycin, 4 mM L-glutamine, 0.15% poloxamer 188 (Sigma-Aldrich), and 1% FBS in an atmosphere containing 5% CO2 at 185 rpm at 37 °C. The ac splice variant of mouse TMEM16A (UniProt ID: Q8BHY3), mouse TMEM16B (UniProt ID: Q8CFW1), or mouse TMEM16F (UniProt ID: Q6P9J9) bearing a 3C cleavage site, a Venus YFP, a Myc tag, and a Streptavidin-binding peptide (SBP) downstream of the open reading frame in a modified pcDNA3.1 vector (Invitrogen) were used as described previously[21],[31]. Mutations were introduced using a modified QuikChange method[58] and were verified by sequencing.
HEK293T cells were transfected with 3–4 μg DNA per 6 cm Petri dish using the calcium phosphate co-precipitation method and were used within 24–96 h after transfection. Recordings were performed on inside-out patches excised from HEK293T cells expressing the construct of interest. Patch pipettes were pulled from borosilicate glass capillaries (O.D. 1.5 mm, I.D. 0.86 mm, Sutter Instrument) and were fire-polished with a microforge (Narishige) before use. Pipette resistance was typically 3–8 MΩ when filled with the recording solutions detailed below. Seal resistance was typically 4 GΩ or higher. Voltage-clamp recordings were made using Axopatch 200B, Digidata 1550, and Clampex 10.7 (Molecular Devices). Analog signals were filtered with the in-built 4-pole Bessel filter at 10 kHz and were digitized at 20 kHz. Solution exchange was achieved using a gravity-fed system through a theta glass pipette mounted on an ultra-fast piezo-driven stepper (Siskiyou). […] All recordings were performed at 20 °C.
A symmetrical ionic condition was used throughout. Stock solution with Ca^2+-EGTA contained 150 mM NaCl, 5.99 mM Ca(OH)2, 5 mM EGTA, and 10 mM HEPES at pH 7.40. Stock solution with EGTA contained 150 mM NaCl, 5 mM EGTA, and 10 mM HEPES at pH 7.40. Free Ca^2+ concentrations were adjusted by mixing the stock solutions at the required ratios calculated using the WEBMAXC program (http://web.stanford.edu/~cpatton/webmaxcS.htm). Patch pipettes were filled with the stock solution with Ca^2+-EGTA, which has a free Ca^2+ concentration of 1 mM. 1PBC (ChemBridge) stock was reconstituted in anhydrous DMSO (Sigma-Aldrich) at 100 mM and stored at −20 °C. Working solutions with 1PBC were prepared by serial dilution. Unless otherwise stated, experiments were performed at a saturating Ca^2+ concentration as shown in Supplementary Table 1 and the primary data were corrected for current rundown as described previously[21],[25].
Concentration-response relations, obtained from the ratio of the I-V plots before and after the application of the blocker, were fitted to the Hill equation,1 I/Imax=1/1+IC50/[blocker]^h where I/Imax is the normalized current responses, IC50 defines the concentration at which inhibition is at its half-maximum, and h is the Hill coefficient.

N#Cc1c(C(F)(F)F)cc(O)n2c1nc1ccccc12 [1PBC]
IC50 (0 mV, 2 µM Ca2+): 30.7 µM
remaining activity at 3 µM (3 µM 1PBC, +80 mV, saturating Ca2+ (2 µM), read-out: I/Imax): 84.4%
remaining activity at 3 µM (3 µM 1PBC, -80 mV, saturating Ca2+ (2 µM), read-out: I/Imax): 94.5%
remaining activity at 10 µM (10 µM 1PBC, +80 mV, saturating Ca2+ (2 µM), read-out: I/Imax): 63.3%
remaining activity at 10 µM (10 µM 1PBC, -80 mV, saturating Ca2+ (2 µM), read-out: I/Imax): 87.2%
remaining activity at 30 µM (30 µM 1PBC, +80 mV, saturating Ca2+ (2 µM), read-out: I/Imax): 36.4%
remaining activity at 30 µM (30 µM 1PBC, -80 mV, saturating Ca2+ (2 µM), read-out: I/Imax): 65.6%
remaining activity at 100 µM (+80 mV, saturating Ca2+ (2 µM), read-out: I/Imax): 14%
remaining activity at 100 µM (-80 mV, saturating Ca2+ (2 µM), read-out: I/Imax): 36%
remaining activity at 3 µM (1PBC 3, 0 mV, read-out: fraction of unblocked current): 89.8%
remaining activity at 3 µM (1PBC 3, 20 mV, read-out: fraction of unblocked current): 88.3%
remaining activity at 3 µM (1PBC 3, 40 mV, read-out: fraction of unblocked current): 86.4%
remaining activity at 3 µM (1PBC 3, 60 mV, read-out: fraction of unblocked current): 85.9%
remaining activity at 3 µM (1PBC 3, 80 mV, read-out: fraction of unblocked current): 84.4%
remaining activity at 3 µM (1PBC 3, 100 mV, read-out: fraction of unblocked current): 83.9%
remaining activity at 3 µM (1PBC 3, 120 mV, read-out: fraction of unblocked current): 84.8%
remaining activity at 3 µM (1PBC 3, 140 mV, read-out: fraction of unblocked current): 86.4%
remaining activity at 3 µM (1PBC 3, -20 mV, read-out: fraction of unblocked current): 91.3%
remaining activity at 3 µM (1PBC 3, -40 mV, read-out: fraction of unblocked current): 92.6%
remaining activity at 3 µM (1PBC 3, -60 mV, read-out: fraction of unblocked current): 93.3%
remaining activity at 3 µM (1PBC 3, -80 mV, read-out: fraction of unblocked current): 94.5%
remaining activity at 3 µM (1PBC 3, -100 mV, read-out: fraction of unblocked current): 94.8%
remaining activity at 3 µM (1PBC 3, -120 mV, read-out: fraction of unblocked current): 95.1%
remaining activity at 3 µM (1PBC 3, -140 mV, read-out: fraction of unblocked current): 96%
remaining activity at 10 µM (1PBC 10, 0 mV, read-out: fraction of unblocked current): 76.6%
remaining activity at 10 µM (1PBC 10, 20 mV, read-out: fraction of unblocked current): 72.7%
remaining activity at 10 µM (1PBC 10, 40 mV, read-out: fraction of unblocked current): 68.9%
remaining activity at 10 µM (1PBC 10, 60 mV, read-out: fraction of unblocked current): 65.9%
remaining activity at 10 µM (1PBC 10, 80 mV, read-out: fraction of unblocked current): 63.3%
remaining activity at 10 µM (1PBC 10, 100 mV, read-out: fraction of unblocked current): 61.7%
remaining activity at 10 µM (1PBC 10, 120 mV, read-out: fraction of unblocked current): 61.7%
remaining activity at 10 µM (1PBC 10, 140 mV, read-out: fraction of unblocked current): 63.1%
remaining activity at 10 µM (1PBC 10, -20 mV, read-out: fraction of unblocked current): 80.4%
remaining activity at 10 µM (1PBC 10, -40 mV, read-out: fraction of unblocked current): 82.9%
remaining activity at 10 µM (1PBC 10, -60 mV, read-out: fraction of unblocked current): 85.2%
remaining activity at 10 µM (1PBC 10, -80 mV, read-out: fraction of unblocked current): 87.2%
remaining activity at 10 µM (1PBC 10, -100 mV, read-out: fraction of unblocked current): 88.6%
remaining activity at 10 µM (1PBC 10, -120 mV, read-out: fraction of unblocked current): 89%
remaining activity at 10 µM (1PBC 10, -140 mV, read-out: fraction of unblocked current): 89.6%
remaining activity at 30 µM (1PBC 30, 0 mV, read-out: fraction of unblocked current): 50.3%
remaining activity at 30 µM (1PBC 30, 20 mV, read-out: fraction of unblocked current): 46.3%
remaining activity at 30 µM (1PBC 30, 40 mV, read-out: fraction of unblocked current): 42.2%
remaining activity at 30 µM (1PBC 30, 60 mV, read-out: fraction of unblocked current): 39%
remaining activity at 30 µM (1PBC 30, 80 mV, read-out: fraction of unblocked current): 36.4%
remaining activity at 30 µM (1PBC 30, 100 mV, read-out: fraction of unblocked current): 34.7%
remaining activity at 30 µM (1PBC 30, 120 mV, read-out: fraction of unblocked current): 34.2%
remaining activity at 30 µM (1PBC 30, 140 mV, read-out: fraction of unblocked current): 35.1%
remaining activity at 30 µM (1PBC 30, -20 mV, read-out: fraction of unblocked current): 54.2%
remaining activity at 30 µM (1PBC 30, -40 mV, read-out: fraction of unblocked current): 58.4%
